# Test results as given in patent US9216957B2, “Androgen receptor antagonists and uses thereof” (SUZHOU KINTOR PHARMACEUTICALS, INC., priority 2011, dated 2015).
# Where two headings read alike, the source gives them in different places.
# System: Prostate-specific antigen (PSA) production in LNCaP cells
# Experiment: PSA Assay (inhibition of PSA production in prostate cancer cells, ELISA)
# Type: cell-based, human
# Settings: Homo sapiens
# Experimental: PSA Assay (Inhibition Test of the Compound of the Present Invention on Prostate-Specific Antigen (PSA) Production in Various Prostate Cancer Cells).
# Androgen dependent LNCaP cells were purchased from the American Type Culture Collection (ATCC, Manassas, Va.). These cells were grown in RPMI 1640 medium supplemented with 10% fetal bovine serum (FBS), 100 U/mL penicillin, 100 μg/mL streptomycin, and 0.25 μg/mL amphotericin B. The cells were maintained at 37° C. and 5% CO2. LNCaP cells between passage 20 and 35 were used for experiments. LNCaP is a hormone sensitive cell line. For the PSA assay, human prostate cancer cells LNCaP were seeded in a 96-well plate at a concentration of 5000 cells/100 μl/well. On the following day, Methyltrienolone (R1881, AR agonist) (final concentration 1 ng/ml), test compounds or bicalutamide (Casodex®, AstraZeneca) (final concentration 0.005 to 20 μM) were added. Three days after the addition, the concentration of PSA in the supernatant of the culture solution was measured by ELISA. ELISAs for human PSA in culture medium were performed using the ultra-sensitive assay procedure and reagents in the Active™ PSA assay kit (Diagnostic Systems Laboratories Inc., Webster, Tex.). Culture medium and standards (200 μl/well) were incubated in antibody-coated plates for 2 h at room temperature on a Titer plate shaker at 500-600 rpm. Wells were then washed five times. The HRP conjugate was diluted 1:20 with assay buffer, and 100 μl was added to all wells. The plates were incubated for 30 min at room temperature on the shaker and washed as before, and 100 μl TMB (3,3′,5,5′-tetramethylbenzidine, 0.4 g/l) was added. The plates were incubated for 10 min on the shaker, and the reaction was terminated with 100 μl stop solution. The plates were read using a plate reader at 450 nm with a 650 nm reference filter. PSA levels were normalized for differences in growth of LNCaP cells following various treatments as determined by the MTS assay. IC50 of PSA was calculated based on a seven point assay (concentrations of tested compound) and expressed as micromolar (uM).
# [1] = LNCaP, 72 h, read-out: LNCAP IC50 (uM), inhibition of PSA production, LNCaP cells, R1881 1 ng/ml, three days, seven point assay
"IC50 (LNCaP cells, read-out: IC50 of inhibition of PSA production in LNCaP cells) [µM]",SMILES,IC50 [1] [µM]
–,"COC(=O)CCc1ccc(N2C(=S)N(c3ccc(C#N)c(C(F)(F)F)c3F)C(=O)C2(C)C)cc1 [Example 3, methyl 3-(4-(3-(4-cyano-2-fluoro-3-(trifluoromethyl)phenyl)-5,5-dimethyl-4-oxo-2-thioxoimidazolidin-1-yl)phenyl)propanoate]",7.83
–,"CC1(C)C(=O)N(c2ccc(C#N)c(Cl)c2F)C(=S)N1c1ccc(CCCC#N)cc1 [Example 41, 2-chloro-4-(3-(4-(3-cyanopropyl)phenyl)-4,4-dimethyl-5-oxo-2-thioxoimidazolidin-1-yl)-3-fluorobenzonitrile]",0.32
–,"COc1c(C#N)ccc(N2C(=O)C(C)(C)N(c3ccc(CCCC#N)nc3)C2=S)c1F [Example 39, 4-(3-(6-(3-cyanopropyl)pyridin-3-yl)-4,4-dimethyl-5-oxo-2-thioxoimidazolidin-1-yl)-3-fluoro-2-methoxybenzonitrile]",0.75
–,"CNC(=O)C1(CCc2ccc(N3C(=S)N(c4ccc(C#N)c(C(F)(F)F)c4F)C(=O)C3(C)C)cc2)CCC1 [Example 34, 1-(2-{4-[3-(4-Cyano-2-fluoro-3-trifluoromethyl-phenyl)-5,5-dimethyl-4-oxo-2-thioxo-imidazolidin-1-yl]-phenyl}-ethyl)-cyclobutanecarboxylic acid methylamide]",0.62
–,"CNC(=O)CCCc1ccc(N2C(=S)N(c3ccc(C#N)c(C(F)(F)F)c3F)C(=O)C23CCC3)cc1F [Example 46, 4-{4-[7-(4-Cyano-2-fluoro-3-trifluoromethyl-phenyl)-8-oxo-6-thioxo-5,7-diaza-spiro[3.4]oct-5-yl]-2-fluoro-phenyl}-N-methyl-butyramide]",0.63
–,"CNC(=O)C(C)(C)CCc1ccc(N2C(=S)N(c3ccc(C#N)c(OC)c3F)C(=O)C23CCC3)cc1 [Example 26, 4-{4-[7-(4-Cyano-2-fluoro-3-methoxy-phenyl)-8-oxo-6-thioxo-5,7-diaza-spiro[3.4]oct-5-yl]-phenyl}-2,2,N-trimethyl-butyramide]",0.97
–,"N#CCCCc1ccc(N2C(=S)N(c3ccc(C#N)c(C(F)(F)F)c3F)C(=O)C23CCC3)cc1 [Example 42, 4-(5-(4-(3-cyanopropyl)phenyl)-8-oxo-6-thioxo-5,7-diazaspiro[3.4]octan-7-yl)-3-fluoro-2-(trifluoromethyl)benzonitrile]",0.85
–,"CC1(C)C(=O)N(c2ccc(C#N)c(C(F)(F)F)c2)C(=S)N1c1ccc(CCCc2ncco2)nc1 [Example 64, 4-{4,4-Dimethyl-3-[6-(3-oxazol-2-yl-propyl)-pyridin-3-yl]-5-oxo-2-thioxo-imidazolidin-1-yl}-2-trifluoromethyl-benzonitrile]",0.45
–,"CC1(C)C(=O)N(c2ccc(C#N)c(Cl)c2F)C(=S)N1c1ccc(CCCC(N)=O)cc1 [Example 9, 4-(4-(3-(3-chloro-4-cyano-2-fluorophenyl)-5,5-dimethyl-4-oxo-2-thioxoimidazolidin-1-yl)phenyl)butanamide]",0.59
–,"CC1(C)C(=O)N(c2ccc(C#N)c(C(F)(F)F)c2)C(=S)N1c1ccc(CCCC(=O)N2CCOCC2)nc1 [Example 56, 4-{4,4-Dimethyl-3-[6-(4-morpholin-4-yl-4-oxo-butyl)-pyridin-3-yl]-5-oxo-2-thioxo-imidazolidin-1-yl}-2-trifluoromethyl-benzonitrile]",3.64
–,"CC1(C)C(=O)N(c2ccc(C#N)c(C(F)(F)F)c2F)C(=S)N1c1ccc(CCCC#N)c(F)c1 [Example 28, 4-(3-(4-(3-cyanopropyl)-3-fluorophenyl)-4,4-dimethyl-5-oxo-2-thioxoimidazolidin-1-yl)-3-fluoro-2-(trifluoromethyl)benzonitrile]",0.11
–,"N#Cc1ccc(N2C(=O)C3(CCC3)N(c3ccc(CCCc4nccs4)nc3)C2=S)c(F)c1C(F)(F)F [Example 68, 3-fluoro-4-(8-oxo-5-(6-(3-(thiazol-2-yl)propyl)pyridin-3-yl)-6-thioxo-5,7-diazaspiro[3.4]octan-7-yl)-2-(trifluoromethyl)benzonitrile]",0.61
–,"CNC(=O)C(C)(C)CCc1ccc(N2C(=S)N(c3ccc(C#N)c(Cl)c3F)C(=O)C23CCC3)cc1 [Example 27, 4-{4-[7-(3-Chloro-4-cyano-2-fluoro-phenyl)-8-oxo-6-thioxo-5,7-diaza-spiro[3.4]oct-5-yl]-phenyl}-2,2,N-trimethyl-butyramide]",0.47
–,"COC(=O)CCCc1ccc(N2C(=S)N(c3ccc(C#N)c(Cl)c3F)C(=O)C2(C)C)cc1 [Example 1, methyl 4-(4-(3-(3-chloro-4-cyano-2-fluorophenyl)-5,5-dimethyl-4-oxo-2-thioxoimidazolidin-1-yl)phenyl)butanoate]",1.34
–,"COc1c(C#N)ccc(N2C(=O)C3(CCC3)N(c3ccc(CCCC#N)c(F)c3)C2=S)c1F [Example 32, 4-(5-(4-(3-cyanopropyl)-3-fluorophenyl)-8-oxo-6-thioxo-5,7-diazaspiro[3.4]octan-7-yl)-3-fluoro-2-methoxybenzonitrile]",0.36
–,"CNC(=O)CCOc1ccc(N2C(=S)N(c3ccc(C#N)c(Cl)c3F)C(=O)C2(C)C)cc1 [Example 16, 3-(4-(3-(3-chloro-4-cyano-2-fluorophenyl)-5,5-dimethyl-4-oxo-2-thioxoimidazolidin-1-yl)phenoxy)-N-methylpropanamide]",0.58
–,"CNC(=O)C(C)(C)CCc1ccc(N2C(=S)N(c3ccc(C#N)c(C(F)(F)F)c3F)C(=O)C23CCC3)cc1 [Example 25, 4-{4-[7-(4-Cyano-2-fluoro-3-trifluoromethyl-phenyl)-8-oxo-6-thioxo-5,7-diaza-spiro[3.4]oct-5-yl]-phenyl}-2,2,N-trimethyl-butyramide]",0.82
3.1,"CC(O)(CS(=O)(=O)c1ccc(F)cc1)C(=O)Nc1ccc(C#N)c(C(F)(F)F)c1 (centres unmarked) [Bicalutamide, reference compound]",–
–,"CC1(C)C(=O)N(c2ccc(C#N)c(C(F)(F)F)c2F)C(=S)N1c1ccc(CCCc2ncc[nH]2)nc1 [Example 66, 4-(3-(6-(3-(1H-imidazol-2-yl)propyl)pyridin-3-yl)-4,4-dimethyl-5-oxo-2-thioxoimidazolidin-1-yl)-3-fluoro-2-(trifluoromethyl)benzonitrile]",1.27
–,"CC1(C)C(=O)N(c2ccc(C#N)c(C(F)(F)F)c2F)C(=S)N1c1ccc(CCCc2ncco2)nc1 [Example 63, 4-{4,4-Dimethyl-3-[6-(3-oxazol-2-yl-propyl)-pyridin-3-yl]-5-oxo-2-thioxo-imidazolidin-1-yl}-3-fluoro-2-trifluoromethyl-benzonitrile]",0.1
–,"CC1(C)C(=O)N(c2ccc(C#N)c(C(F)(F)F)c2F)C(=S)N1c1ccc(CCCC(N)=O)cc1 [Example 8, 4-(4-(3-(4-cyano-2-fluoro-3-(trifluoromethyl)phenyl)-5,5-dimethyl-4-oxo-2-thioxoimidazolidin-1-yl)phenyl)butanamide]",0.43
–,"CNC(=O)CCCc1ccc(N2C(=S)N(c3ccc(C#N)c(C(F)(F)F)c3F)C(=O)C2(C)C)cn1 [Example 57, 4-{5-[3-(4-Cyano-2-fluoro-3-trifluoromethyl-phenyl)-5,5-dimethyl-4-oxo-2-thioxo-imidazolidin-1-yl]-pyridin-2-yl}-N-methyl-butyramide]",1.91
–,"CC1(C)C(=O)N(c2ccc(C#N)c(C(F)(F)F)c2F)C(=S)N1c1ccc(CCCc2nccs2)nc1 [Example 67, 4-(4,4-dimethyl-5-oxo-3-(6-(3-(thiazol-2-yl)propyl)pyridin-3-yl)-2-thioxoimidazolidin-1-yl)-3-fluoro-2-(trifluoromethyl)benzonitrile]",0.27
–,"CC1(C)C(=O)N(c2ccc(C#N)c(C(F)(F)F)c2F)C(=S)N1c1ccc(CCCc2ncco2)c(F)c1 [Example 49, 3-Fluoro-4-{3-[3-fluoro-4-(3-oxazol-2-yl-propyl)-phenyl]-4,4-dimethyl-5-oxo-2-thioxo-imidazolidin-1-yl}-2-trifluoromethyl-benzonitrile]",0.49
–,"CC1(C)C(=O)N(c2ccc(C#N)c(C(F)(F)F)c2)C(=S)N1c1ccc(CCCC(=O)N2CC(O)C2)c(F)c1 [Example 48, 4-(3-{3-Fluoro-4-[4-(3-hydroxy-azetidin-1-yl)-4-oxo-butyl]-phenyl}-4,4-dimethyl-5-oxo-2-thioxo-imidazolidin-1-yl)-2-trifluoromethyl-benzonitrile]",1.04
–,"COc1c(C#N)ccc(N2C(=O)C(C)(C)N(c3ccc(CCCC#N)c(F)c3)C2=S)c1F [Example 30, 4-(3-(4-(3-cyanopropyl)-3-fluorophenyl)-4,4-dimethyl-5-oxo-2-thioxoimidazolidin-1-yl)-3-fluoro-2-methoxybenzonitrile]",0.29
